# From patent US7776558B2, “Human G protein-coupled receptor and modulators thereof for the treatment of cell death-related disorders” (Arena Pharmaceuticals, Inc., priority 2003, dated 2010)
# pEC50: −log10 of the molar value. Entries after “also recorded” stand apart in the source; their conditions may differ. Where no end group is shown, it is not given here.
# How the values were obtained:
# [1] = test system: differentiated SH-SY5Y cells; assay: Aβ-induced cell death of differentiated SH-SY5Y cells; type: cell-based, human; conditions: AB1-42 80 μg/ml; Humanin 1 μM; Compound 1 20 μM, 5 μM or 1 μM; Trypan Blue staining; FIG. 12
# Protocol: SH-SY5Y is a human neuroblastoma cell line. Differentiation of SH-SY5Y into neuronal-like cells was carried out by treatment with retinoic acid (10 μM) for five days followed by treatment with BDNF (10 ng/ml) for two days. Aβ (AB1-42) was purchased from Biosource International (Camarillo, Calif.; catalog no. 03-111).
# The assay was carried out in serum-free medium. AB1-42 was used at 80 μg/ml. […] Compound 1 was used at either 20 μM, 5 μM or 1 μM.
# Cell survival was determined by Trypan Blue staining.
# FPRL1 [2] = target: T1, FPRL1 (Homo sapiens, UniProt P25090); assay: Whole cell adenylate cyclase (cAMP) assay, stably transfected HEK293 cells; type: cell-based; conditions: in the presence of 5 μM forskolin, FIG. 6
# T1 sequence (P25090 1-351): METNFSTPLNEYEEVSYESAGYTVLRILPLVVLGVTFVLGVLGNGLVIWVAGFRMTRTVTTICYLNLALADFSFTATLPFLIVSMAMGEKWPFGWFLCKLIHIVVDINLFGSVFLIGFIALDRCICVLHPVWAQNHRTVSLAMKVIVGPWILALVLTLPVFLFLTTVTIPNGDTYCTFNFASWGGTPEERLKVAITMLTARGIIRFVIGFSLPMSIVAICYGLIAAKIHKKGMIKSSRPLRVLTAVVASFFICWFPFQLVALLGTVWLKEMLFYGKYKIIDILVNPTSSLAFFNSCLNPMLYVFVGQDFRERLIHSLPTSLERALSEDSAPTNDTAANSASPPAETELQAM
# Text: A Flash Plate™ Adenylyl Cyclase kit (New England Nuclear; Cat. No. SMP004A) designed for cell-based assays can be modified for use with crude plasma membranes. The Flash Plate wells can contain a scintillant coating which also contains a specific antibody recognizing cAMP. The cAMP generated in the wells can be quantitated by a direct competition for binding of radioactive cAMP tracer to the cAMP antibody. The following serves as a brief protocol for the measurement of changes in cAMP levels in whole cells that express the receptors.
# Transfected cells are harvested approximately twenty four hours after transient transfection. Media is carefully aspirated off and discarded. 10 ml of PBS is gently added to each dish of cells followed by careful aspiration. 1 ml of Sigma cell dissociation buffer and 3 ml of PBS are added to each plate. Cells are pipetted off the plate and the cell suspension is collected into a 50 ml conical centrifuge tube. Cells are then centrifuged at room temperature at 1,100 rpm for 5 min. The cell pellet is carefully re-suspended into an appropriate volume of PBS (about 3 ml/plate). The cells are then counted using a hemocytometer and additional PBS is added to give the appropriate number of cells (with a final volume of about 50 μl/well). […]
# In FIG. 6, agonist activity was determined through adenylate cyclase activity. […] Samples were then assessed for the level of intracellular cAMP as described in Example 4, supra.
# neuronal cells = conditions: cited from earlier work
# [3] = test system: human cerebrovascular smooth muscle cells; conditions: cited from earlier work
# FPRL1 [4] = target: T1, FPRL1; assay: [35S]GTPγS binding assay, membranes of transiently transfected CHO cells; type: biochemical; design: Full-Length Cloning of Human GPCRs; expressed in transfected cells; host or cells: CHO-K1 cells, transient, pCMV; plasma membranes; conditions: FIG. 3 panel B, read-out: EC50 at FPRL1, promoted [35S]GTPγS binding
Compound,Protection from Aβ-induced cell death [1],"Agonist activity at FPRL1, intracellular cAMP (FPRL1 [2])","Agonist activity at FPRL1, intracellular cAMP (FPRL1 [2]; listed as Human)","Protection of neuronal cells from toxic insults (neuronal cells; Alzheimer's disease-relevant toxicity, three mutant FAD genes and Aβ)",Rescue of cortical neurons from prion-peptide-induced apoptosis (neuronal cells; Sponne et al. 2004),Protective activity for neurons against serum deprivation (neuronal cells; Takahashi et al. 2002),Rescue from Aβ-induced toxicity [3],Activity relative to Humanin (neuronal cells; Niikura et al. 2002),pEC50 (FPRL1 [4])
"CC(C)c1ccc2c(c1)CCC1C(C)(C(N)=O)CCCC21C (centres unmarked) [Compound 1, 7-Isopropyl-1,4a-dimethyl-1,2,3,4,4a,9,10,10a-octahydro-phenanthrene-1-carboxylic acid amide]",protect differentiated SH-SY5Y cells from Aβ-induced cell death,–,–,–,–,–,–,–,–
CC[C@H](C)[C@H](NC(=O)[C@H](CCC(=O)O)NC(=O)[C@H](CO)NC(=O)[C@@H](NC(=O)[C@H](CC(C)C)NC(=O)[C@H](CC(C)C)NC(=O)[C@H](CC(C)C)NC(=O)[C@H](CC(C)C)NC(=O)[C@H](CS)NC(=O)[C@H](CO)NC(=O)[C@H](Cc1ccccc1)NC(=O)CNC(=O)[C@H](CCCNC(=N)N)NC(=O)[C@@H]1CCCN1C(=O)[C@H](C)NC(=O)[C@@H](N)CCSC)[C@@H](C)O)C(=O)N[C@@H](CC(=O)O)C(=O)N[C@@H](CC(C)C)C(=O)N1CCC[C@H]1C(=O)N[C@H](C(=O)N[C@@H](CCCCN)C(=O)N[C@@H](CCCNC(=N)N)C(=O)N[C@@H](CCCNC(=N)N)C(=O)N[C@@H](C)C(=O)O)C(C)C [Humanin],protect differentiated SH-SY5Y cells from Aβ-induced cell death,agonists of both FPRL1 and FPRL2,agonists of both FPRL2 and FPRL1,protect neuronal cells from Alzheimer's disease-relevant toxicity; also recorded: protect neuronal cells from a number of toxic insults,rescue cortical neurons from prion-peptide-induced apoptosis,protective activity for neurons against serum deprivation,rescues human cerebrovascular smooth muscle cells from Aβ-induced toxicity,–,–
MAPRGFSCLLLLTGEIDLPVKRRA [[Gly14]-Humanin],–,agonists of both FPRL1 and FPRL2; also recorded: agonists of both FPRL2 and FPRL1,–,–,–,–,–,significantly more active than Humanin,~5.82
